Source: patent US8124360B2, “Use of a T1R2 nucleic acid sequence to identify tastants” (Givaudan S.A., priority 2006, dated 2012)
Residues, ends and D or L forms follow the SMILES beside them.

How the values were obtained:
[1] = target: T1, T1R2 monomer (Homo sapiens, UniProt Q8TE23); experiment: Fluo-4 calcium assay, HEK293T/G16gust44 cells transiently transfected with T1R2 monomer; type: cell-based
T1 construct: expressed in transfected cells; host or cells: HEK293T cells stably expressing G16gust44
T1 sequence (Q8TE23 20-839): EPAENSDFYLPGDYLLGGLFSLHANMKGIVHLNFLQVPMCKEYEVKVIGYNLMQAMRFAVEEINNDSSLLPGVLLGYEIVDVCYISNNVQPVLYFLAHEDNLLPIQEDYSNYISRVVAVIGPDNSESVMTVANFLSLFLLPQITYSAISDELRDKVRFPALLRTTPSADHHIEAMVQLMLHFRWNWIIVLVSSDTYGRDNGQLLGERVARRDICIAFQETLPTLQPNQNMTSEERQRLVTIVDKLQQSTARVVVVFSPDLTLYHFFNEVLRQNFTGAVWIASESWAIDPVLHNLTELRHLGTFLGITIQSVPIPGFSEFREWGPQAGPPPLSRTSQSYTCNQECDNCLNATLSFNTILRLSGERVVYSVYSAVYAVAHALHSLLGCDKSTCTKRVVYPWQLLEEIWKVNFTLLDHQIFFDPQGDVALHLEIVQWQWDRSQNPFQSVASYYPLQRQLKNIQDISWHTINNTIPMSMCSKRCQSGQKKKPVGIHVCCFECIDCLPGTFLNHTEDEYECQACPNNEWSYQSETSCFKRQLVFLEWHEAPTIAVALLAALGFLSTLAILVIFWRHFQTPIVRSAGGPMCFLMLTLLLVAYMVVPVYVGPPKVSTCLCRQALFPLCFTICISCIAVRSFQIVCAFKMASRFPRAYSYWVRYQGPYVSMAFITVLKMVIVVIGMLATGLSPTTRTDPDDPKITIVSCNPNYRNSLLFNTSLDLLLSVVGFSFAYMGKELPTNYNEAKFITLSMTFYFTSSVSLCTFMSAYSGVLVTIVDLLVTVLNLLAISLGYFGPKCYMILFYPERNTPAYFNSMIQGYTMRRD
Excerpt: (§1) All examples use the human receptors.
(§2) HEK293 cells stably expressing G alpha 16-gustducin 44 and transfected as described in example 2, 3 or 4 were used as host cells.
(§3) To form a T1R2 vector construct, cDNA fragments containing the entire protein coding sequences for human T1R2 and T1R3 were isolated from a human fungiform cDNA library, fully sequenced and then subcloned into pcDNA3.1 (Invitrogen).

[2] = target: T2, T1R2/T1R3 dimer (Homo sapiens, UniProt Q7RTX0+Q8TE23); experiment: Fluo-4 calcium assay, HEK293T/G16gust44 cells transiently transfected with T1R2 and T1R3; type: cell-based
T2 construct: expressed in transfected cells; host or cells: HEK293T cells stably expressing G16gust44
T2 sequence (Q8TE23 20-839): T1 sequence (Q8TE23 20-839)
T2 sequence (Q7RTX0 21-852): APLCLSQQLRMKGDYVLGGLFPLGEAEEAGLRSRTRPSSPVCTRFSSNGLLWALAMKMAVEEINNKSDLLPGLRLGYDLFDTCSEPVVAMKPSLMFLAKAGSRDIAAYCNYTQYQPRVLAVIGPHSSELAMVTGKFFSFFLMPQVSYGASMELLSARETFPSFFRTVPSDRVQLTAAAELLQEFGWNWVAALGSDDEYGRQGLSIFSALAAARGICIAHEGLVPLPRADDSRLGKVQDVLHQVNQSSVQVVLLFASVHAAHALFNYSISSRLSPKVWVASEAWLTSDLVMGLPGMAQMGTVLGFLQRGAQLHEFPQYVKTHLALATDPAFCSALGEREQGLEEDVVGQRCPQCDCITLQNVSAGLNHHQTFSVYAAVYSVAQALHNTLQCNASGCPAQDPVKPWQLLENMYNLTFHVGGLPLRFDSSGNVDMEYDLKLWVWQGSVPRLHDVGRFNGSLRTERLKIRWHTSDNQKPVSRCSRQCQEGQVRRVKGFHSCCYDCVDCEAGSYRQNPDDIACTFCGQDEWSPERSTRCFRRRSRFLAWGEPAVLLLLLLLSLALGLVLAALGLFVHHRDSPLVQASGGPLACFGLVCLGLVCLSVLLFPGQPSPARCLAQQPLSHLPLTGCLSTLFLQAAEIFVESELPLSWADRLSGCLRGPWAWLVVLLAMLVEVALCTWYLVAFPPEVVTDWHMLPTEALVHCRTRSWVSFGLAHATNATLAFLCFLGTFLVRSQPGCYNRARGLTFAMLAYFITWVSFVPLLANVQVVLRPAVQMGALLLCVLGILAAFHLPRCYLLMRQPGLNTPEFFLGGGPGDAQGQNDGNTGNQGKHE
Excerpt: as §1, §2, §3

[3] = test system: cells expressing G16gust44 only; experiment: Calcium flux assay (FLIPR), non-transfected cells expressing G16gust44 only; type: cell-based; details: 50 μM perillartine
Experimental: (§4) For results, see table below. The signal average of the experiment is given, as well as the standard deviation (STD) in RFU. Two clones were analysed. Non-transfected cells expressing G16gust44 only serve as a general negative control.

[4] = target: T1, T1R2 monomer; experiment: Calcium flux assay (FLIPR), clonal cell lines stably expressing T1R2 and G16gust44; type: cell-based; details: 50 μM perillartine
Experimental: as §1
A human T1R2/pcDNA4-Zeocin construct was linearized by digesting 5 ug with Pvu II and then purified using the Wizard DNA Clean-Up System (Promega). The DNA was transfected using the Lipofectamine 2000 reagent into cells that already stably express the G16gust44 G-protein (formed as described in WO 2004/055048).
as §4

[5] = target: T3, T1R3 monomer (Homo sapiens, UniProt Q7RTX0); experiment: Fluo-4 calcium assay, HEK293T/G16gust44 cells transiently transfected with T1R3 monomer; type: cell-based; details: 50 μM perillartine, mean of six replicates
T3 construct: expressed in transfected cells; host or cells: HEK293T cells stably expressing G16gust44
T3 sequence (Q7RTX0 21-852): T2 sequence (Q7RTX0 21-852)
Excerpt: as §1, §2, §3

[6] = test system: mock transfected cells expressing only the G16gust44 chimeric G-protein; experiment: Fluo-4 calcium assay, mock transfected cells expressing only G16gust44 (negative control cells); type: cell-based, human; details: 50 μM perillartine, mean of six replicates
Excerpt: as §2

[7] = 50 μM perillartine, mean of six replicates

| SMILES | calcium signal compared with negative controls (mock transfected cells) [1] | calcium signal intensity [2] | further results |
| --- | --- | --- | --- |
| N[C@H](Cc1c[nH]c2ccccc12)C(=O)O [D-tryptophan] | not significantly above the signals observed for the negative controls | strong signals comparable to the signal intensity of perillartine | – |
| COC(=O)[C@H](Cc1ccccc1)NC(=O)[C@@H](N)CC(=O)O [aspartame] (H-Asp-Phe-OMe) | not significantly above the signals observed for the negative controls | strong signals comparable to the signal intensity of perillartine | – |
| C=C(C)[C@@H]1CC=C(/C=N/O)CC1 [perillartine] | – | – | Signal average [3]: 368.71 RFU; SIGNAL AVERAGE (net increase in fluorescence over baseline) [1, 7]: 944.9 RFU; Signal average ([4]; T1R2/G16gust44 CLONE 2): 4336.25 RFU; Signal average ([4]; T1R2/G16gust44 CLONE 4): 5288.47 RFU; perillartine-dependent signal relative to negative control cells expressing only G16gust44 ([4]; clonal cell lines stably expressing T1R2 monomer): at least 10 fold; SIGNAL AVERAGE (net increase in fluorescence over baseline) [5]: 165.6 RFU; SIGNAL AVERAGE (net increase in fluorescence over baseline) [2, 7]: 1279.6 RFU; SIGNAL AVERAGE (net increase in fluorescence over baseline) [6]: 353.5 RFU |
| C=C1C[C@@]23CC[C@H]4[C@@](C)(CCC[C@@]4(C)C(=O)O[C@@H]4O[C@H](CO)[C@@H](O)[C@H](O)[C@H]4O)[C@@H]2CC[C@]1(O[C@@H]1O[C@H](CO)[C@@H](O)[C@H](O)[C@H]1O[C@@H]1O[C@H](CO)[C@@H](O)[C@H](O)[C@H]1O)C3 [stevioside] | not significantly above the signals observed for the negative controls | strong signals comparable to the signal intensity of perillartine | – |
| OC[C@H]1O[C@H](O[C@]2(CCl)O[C@H](CCl)[C@@H](O)[C@@H]2O)[C@H](O)[C@@H](O)[C@H]1Cl [sucralose] | not significantly above the signals observed for the negative controls | strong signals comparable to the signal intensity of perillartine | – |
